From paper PMC5412286, “Biosynthesis of α-Glucosidase Inhibitors by a Newly Isolated Bacterium, Paenibacillus sp. TKU042 and Its Effect on Reducing Plasma Glucose in a Mouse Model” (International Journal of Molecular Sciences, 2017)
Marks after values point to notes of the source that are not given here.

Experiments:
[1] = tested on: ICR mice; assay: diarrhea / ill effects in the sucrose tolerance test; conditions: FNB 100, 200 or 400 mg, acarbose 12.5 mg, FNB (100, 200 mg) with acarbose 12.5 mg
Protocol: A sucrose solution was orally administered at 3 g/kg bw and blood was sampled and measured after 0.5, 1, 1.5 and 2 h.

[2] = biological target: T1, Saccharomyces cerevisiae α-glucosidase (Saccharomyces cerevisiae, UniProt P53341); assay: yeast α-glucosidase inhibition assay; type: biochemical; conditions: S. cerevisiae α-glucosidase
T1 construct: purchased Sigma Chemical Co., St. Louis, MO, USA
Protocol: SPP, SHP (shrimp head powder), and NB were used as the sole sources of C/N with concentrations of 1%, 1% and 0.8%, respectively. Fermentation conditions were set at 30 °C, shaking speed of 150 rpm, 100/250 mL for the medium/flask volume ratio, and 1 mL of bacterial seed solution (OD660nm = 0.38). The inhibition against yeast α-glucosidase was then tested and calculated in % (A) or U/mL (B); the growth of Paenibacillus sp. TKU042 was detected at OD660nm (C). […] Saccharomyces cerevisiae α-glucosidase was used to test aGI activity.
All of the isolated strains were incubated in a 250-mL Erlenmeyer flask with 50 mL of the same medium, but without agar. Fermentation was performed at 37 °C and a 150 rpm shaking speed. After 1–4 days of fermentation, the culture was centrifuged at 500 rpm for 10 min to remove the medium residue. The solution was then centrifuged again at 4000 rpm for 20 min to separate the cells from the culture supernatant. The supernatant was then used to test yeast α-glucosidase inhibitory activity. […] The screening of active bacteria was based on the inhibitory activity of the supernatant.
Three sources of C/N (1% SPP, 1% SHP, and 0.8% NB) were used to cultivate Paenibacillus sp. TKU042; conditions were set at 30 °C, a shaking speed of 150 rpm and a 100/250 mL medium/flask volume ratio for nine days. […]

[3] = biological target: Rat α-glucosidase; assay: rat intestinal α-glucosidase inhibition assay; type: biochemical
Protocol: To determine rat intestinal α-glucosidase inhibition, the techniques from the previous report were followed, with modifications. One hundred mg of rat-intestinal acetone powder was suspended in 4 mL of 0.1 mol/L potassium phosphate buffer (NPB), pH 7. The suspension was sonicated several times for 12 s at 4 °C and then centrifuged for 20 min at 10,000× g. The residues were twice suspended with 3 mL of 0.1 mol/L NPB at pH 7, as described above. The resulting supernatant was mixed together and dialyzed for 12 h at 4–6 °C, and then used for the assay. The α-glucosidase, sample solutions and buffer were pre-mixed at volumes of 50, 50 and 100 μL, respectively. After pre-incubation at 37 °C for 20 min, the reaction started when 50 μL of p-nitrophenyl glucopyranoside (10 mmol/L) was added to the mixture. After 20 min at 37 °C, 100 μL Na2CO3 solution (1 mol/L) was added to terminate the reaction. The absorbance of the final mixture was measured at 410 nm and used to calculate inhibition (%) using the following equation: α-glucosidase inhibitory activity (%) = (A − B)/A × 100 where “A” is the absorbance of the control (buffer was used instead of sample with the same volume) and “B” is the absorbance of the final mixture containing the sample and α-glucosidase. The IC50 value was defined and determined as per the previous study. […]

[4] = DPPH radical scavenging activity assay
Protocol: One hundred and twenty microliters of each sample (at different concentrations) was mixed with 30 µL of a methanolic solution containing 0.75 mM DPPH radicals in the well of a plate with 96 wells. The mixture was kept in the dark for 30 min before absorbance at 517 nm was measured. Radical scavenging activity was calculated using the following formula: Antioxidant activity (%) = [(AB − AA)/AB] × 100 where AB and AA stand for absorption of the blank sample (t = 0 min) and absorption of the tested sample solution (t = 30 min), respectively. α-Tocopherol dissolved in MeOH was also analyzed as a control.

T1 sequence (P53341 whole entry): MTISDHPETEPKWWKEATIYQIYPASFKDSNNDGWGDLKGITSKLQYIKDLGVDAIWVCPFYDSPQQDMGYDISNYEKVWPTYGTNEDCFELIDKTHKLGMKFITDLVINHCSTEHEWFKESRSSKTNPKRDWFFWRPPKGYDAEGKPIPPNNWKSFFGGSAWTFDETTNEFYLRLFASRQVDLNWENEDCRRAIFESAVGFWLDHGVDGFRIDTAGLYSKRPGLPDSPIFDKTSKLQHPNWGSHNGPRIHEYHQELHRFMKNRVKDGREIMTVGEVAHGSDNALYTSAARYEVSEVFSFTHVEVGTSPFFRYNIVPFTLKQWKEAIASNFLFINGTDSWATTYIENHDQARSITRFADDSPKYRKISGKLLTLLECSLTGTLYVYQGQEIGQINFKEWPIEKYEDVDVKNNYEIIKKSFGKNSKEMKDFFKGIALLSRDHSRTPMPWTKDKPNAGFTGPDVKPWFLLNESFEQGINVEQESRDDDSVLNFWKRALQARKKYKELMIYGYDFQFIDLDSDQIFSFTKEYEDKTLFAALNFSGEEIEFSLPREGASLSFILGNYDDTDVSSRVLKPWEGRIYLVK

Compound	ill effects (diarrhea), in words [1]	Maximum Inhibitory Activity [2] [%]	IC50 [3]	Maximum Inhibitory Activity [3] [%]	antioxidant activity IC50 (DPPH radical scavenging) ([4]; DPPH, 30 min, 517 nm) [µg/mL]	antioxidant activity achieved (DPPH) ([4]; maximum activity)
C[C@H]1O[C@H](O[C@H]2[C@H](O)[C@@H](O)[C@@H](O[C@H]3[C@H](O)[C@@H](O)C(O)O[C@@H]3CO)O[C@@H]2CO)[C@H](O)[C@@H](O)[C@@H]1N[C@H]1C=C(CO)[C@@H](O)[C@H](O)[C@H]1O (stereo partly drawn) [acarbose]	No ill effects	63 ± 2.5	107 ± 2.5 ^c µg/mL	89 ± 2.4		
Cc1c(C)c2c(c(C)c1O)CC[C@@](C)(CCC[C@H](C)CCC[C@H](C)CCCC(C)C)O2 [α-Tocopherol]					24.7 ± 1.2	approximately 100%
